Experimental findings from PubChem BioAssay (NCI) are described below.

Among the test systems are HCT-116 colon; HCT-15 colon; KM12 colon; LOX IMVI melanoma; MDA-MB-231 breast; NCI/ADR-RES ovarian; OVCAR-8 ovarian; SK-OV-3 ovarian; U251 CNS; UO-31 renal.
What all share (assay): NCI-60 cell line screen, 48 h

The structures appear in SMILES notation.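 Five compound concentrations were applied to cells in 96-well plates for 48 hours; endpoints were derived by simple linear interpolation of the resulting dose-response curve. At the TGI there is no net growth.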 *1 amine or outer side, *2 acyl side, *3 side chain or, on linkers, in order; H or OH if unused. Where a SMILES comes first, the peptide text is derived from it. The star is where a group is joined. γGlu = O=C(O)[CH](CCC(=O)[*:2])N[*:1]; NHOH = ON* Bounds are passed on as bounds.

`Cc1ccc(S(=O)(=O)N(CC(O)COc2ccccc2)c2c(F)c(F)c(F)c(F)c2F)cc1` (stereo not given): the TGI with HCT-116 colon is 44 µM; in the assay on HCT-15 colon, 33 µM; in the assay with KM12 colon, more than 100 µM; with LOX IMVI melanoma, 28.6 µM; in the assay on MDA-MB-231 breast it was 30.7 µM; with NCI/ADR-RES ovarian it was 35.1 µM. Further, the TGI in the assay on OVCAR-8 ovarian is 32.8 µM; with SK-OV-3 ovarian, 43.8 µM; with U251 CNS it was 27.9 µM; in the assay with UO-31 renal, 25.1 µM.
Turning to `CC(Nc1cccc(Cl)c1)c1ccncc1` (stereo not given), the TGI in the assay on HCT-116 colon, in the assay with HCT-15 colon, with KM12 colon, in the assay on LOX IMVI melanoma, in the assay with MDA-MB-231 breast and in the assay on NCI/ADR-RES ovarian was more than 100 µM in each case. Further, the TGI in the assay on OVCAR-8 ovarian, with SK-OV-3 ovarian, in the assay on U251 CNS and with UO-31 renal was more than 100 µM in each case.
For `NC(=O)N/N=C(\Cc1cc(=O)oc2cc(O)ccc12)C(=O)Nc1ccccc1C(N)=O`, the TGI with HCT-116 colon, with HCT-15 colon, with KM12 colon, in the assay with LOX IMVI melanoma, with MDA-MB-231 breast and in the assay on NCI/ADR-RES ovarian was more than 100 µM each time. The TGI in the assay on OVCAR-8 ovarian, in the assay with SK-OV-3 ovarian, in the assay with U251 CNS and in the assay with UO-31 renal was more than 100 µM in each case.
Consider `CCCCCCc1cc2cc(C(=O)Nc3nc(C45CC6CC(CC(C6)C4)C5)cs3)c(=O)oc2cc1O`, for which the TGI in the assay on HCT-116 colon amounted to 13.2 µM; in the assay on HCT-15 colon, 39.2 µM; in the assay on KM12 colon, 32.6 µM; in the assay with LOX IMVI melanoma, 30.9 µM; in the assay with MDA-MB-231 breast, 22.3 µM; with NCI/ADR-RES ovarian, 80.5 µM. The TGI came to 43.1 µM with OVCAR-8 ovarian, 49 µM in the assay on SK-OV-3 ovarian, 28.6 µM in the assay with U251 CNS and 67.6 µM in the assay on UO-31 renal.
For `O=c1[nH]c2c(C(F)(F)F)c(Cl)c(-c3ccccc3)nc2o1`, the TGI with HCT-116 colon is 38.4 µM; in the assay with HCT-15 colon, more than 100 µM; in the assay on KM12 colon it was more than 100 µM; in the assay with LOX IMVI melanoma it was more than 100 µM; in the assay with MDA-MB-231 breast, 65.2 µM; in the assay on NCI/ADR-RES ovarian, 67.2 µM. In addition, the TGI with OVCAR-8 ovarian was more than 100 µM; in the assay with SK-OV-3 ovarian, 64.7 µM; with U251 CNS, 85.6 µM; in the assay with UO-31 renal, more than 100 µM.
`COC(=O)C12C(=O)CC3CCC1C32C(=O)OC` (stereo not given): the TGI with HCT-116 colon, in the assay on HCT-15 colon, in the assay with KM12 colon, in the assay on LOX IMVI melanoma, in the assay on MDA-MB-231 breast and in the assay on NCI/ADR-RES ovarian was more than 100 µM in each case. The TGI with OVCAR-8 ovarian, in the assay with SK-OV-3 ovarian, in the assay on U251 CNS and with UO-31 renal was more than 100 µM each time.
On to `COc1cc(OC)c(-n2[nH]c(=O)n(C)c2=O)c(OC)c1`, for which the TGI in the assay with HCT-116 colon, in the assay on HCT-15 colon, with KM12 colon, in the assay with LOX IMVI melanoma, in the assay on MDA-MB-231 breast and in the assay with NCI/ADR-RES ovarian was more than 100 µM each time. For the same molecule, the TGI in the assay with OVCAR-8 ovarian, in the assay on SK-OV-3 ovarian, in the assay with U251 CNS and with UO-31 renal was more than 100 µM in each case.
Turning to `COC(=O)[C@H](Cc1ccccc1)NC(=O)N(CCN(CCC#N)C(=O)N[C@H](C(=O)OC)C(C)C)c1ccccc1`, the TGI with HCT-116 colon, in the assay with HCT-15 colon, in the assay with KM12 colon, with LOX IMVI melanoma, with MDA-MB-231 breast and in the assay on NCI/ADR-RES ovarian was more than 100 µM in each case. Besides, the TGI in the assay with OVCAR-8 ovarian, in the assay on SK-OV-3 ovarian, in the assay on U251 CNS and in the assay on UO-31 renal was more than 100 µM in each case.
On to `CCOP(=O)(OCC)/C(C#N)=C/c1nc[nH]c1C`, for which the TGI with HCT-116 colon, in the assay on HCT-15 colon, in the assay on KM12 colon, in the assay on LOX IMVI melanoma, in the assay with MDA-MB-231 breast and in the assay on NCI/ADR-RES ovarian was more than 100 µM throughout. The TGI in the assay with OVCAR-8 ovarian, with SK-OV-3 ovarian, in the assay on U251 CNS and in the assay on UO-31 renal was more than 100 µM each time.
`Cc1c2ccccc2c(/C=N/NC(=O)CSCC(=O)N/N=C/c2c3ccccc3c(C)c3ccccc23)c2ccccc12`: the TGI is more than 100 µM in the assay with HCT-116 colon; more than 100 µM in the assay on HCT-15 colon; more than 100 µM with KM12 colon; more than 100 µM with LOX IMVI melanoma; more than 75 µM in the assay with MDA-MB-231 breast; more than 100 µM with NCI/ADR-RES ovarian. Also, the TGI in the assay with OVCAR-8 ovarian was more than 86.4 µM; with SK-OV-3 ovarian, more than 100 µM; with U251 CNS it was more than 57.6 µM; in the assay on UO-31 renal, more than 100 µM.
With `NC(CCC(=O)NC(CCC(=O)NO)C(=O)NCC(=O)O)C(=O)O` (stereo not given) (γGlu-Glu(NHOH)-Gly-OH; configuration not given here), the TGI with HCT-116 colon, with HCT-15 colon, in the assay on KM12 colon, with LOX IMVI melanoma, in the assay with MDA-MB-231 breast and in the assay with NCI/ADR-RES ovarian was more than 100 µM throughout. The TGI in the assay on OVCAR-8 ovarian, with SK-OV-3 ovarian, with U251 CNS and with UO-31 renal was more than 100 µM throughout.
Take `O=C(Nc1ccc(Cl)cc1)c1cc(S(=O)(=O)Nc2nc3ncccc3[nH]2)c(SSc2cc(Cl)c(C(=O)Nc3ccc(Cl)cc3)cc2S(=O)(=O)Nc2nc3ncccc3[nH]2)cc1Cl`: the TGI in the assay with HCT-116 colon, with HCT-15 colon, in the assay on KM12 colon, in the assay on LOX IMVI melanoma, in the assay with MDA-MB-231 breast and in the assay on NCI/ADR-RES ovarian was more than 100 µM each time. For the same molecule, the TGI in the assay with OVCAR-8 ovarian, in the assay with SK-OV-3 ovarian, in the assay on U251 CNS and in the assay with UO-31 renal was more than 100 µM each time.
With `Cc1ccc2[nH]c3c(c2c1)C1CCC(C(C)(C)C)CC1C1C(=O)N(c2ccc(Oc4ccccc4)cc2)C(=O)C31` (stereo not given), the TGI in the assay with HCT-116 colon, in the assay with HCT-15 colon, in the assay with KM12 colon, in the assay with LOX IMVI melanoma, in the assay with MDA-MB-231 breast and with NCI/ADR-RES ovarian was more than 100 µM in each case. Also, the TGI with OVCAR-8 ovarian was 38.6 µM; with SK-OV-3 ovarian it was 94.7 µM; in the assay with U251 CNS it was 21.6 µM; with UO-31 renal, more than 100 µM.
